Columns and labels:
HepG2 = assay: Western blot, semi-quantitative protein expression; format: cell-based, human
Experimental: For the Western Blot analysis, cells were rinsed and lysed as previously described. An amount of 25 µg protein was used for SDS-PAGE. Antibodies for c-Abl (sc-131), Actin (sc-1616), Cdc2-p34 (sc-8395), EPS15 (sc-1840), FAK (sc-558), c-Fos (sc-52), p38 (sc-7972), p53 (sc-6243) and STAT5 (sc-835x) were obtained from Santa Cruz (Santa Cruz Biotechnology, Heidelberg, Germany), while c-Src (2109) and phospho-Src Y416 (2101) were purchased from Cell Signaling (Cell Signaling Technology, Frankfurt a. M., Germany). The EGFR (06-847), phospho-EGFR Y992 (07-821) and phospho-EGFR Y1045 (04-284) stem from Upstate (Upstate, Schwalbach, Germany) and the hnRNP-K (A300-676A) from Bethyl Labs (Bethyl Laboratories, Montgomery, Texas, USA). Finally p73 (IMG-246) was supplied by Imgenex (Imgenex, Hamburg, Germany). Depending on the primary antibody the secondary antibodies were either horseradish peroxidase-conjugated anti-mouse (AP 160P), anti-rabbit (AP 132P) or anti-sheep (AP 147P) (Chemicon, Schwalbach, Germany).
Semi-quantitative analysis were carried out with Kodak 1D Image Analysis Software in reference to the vehicle treated control cells (see supplementary table S7).

GammaD12 = settings: IC50 concentration, 24 h, vs vehicle
Experimental: According to instructions, Caspase-Glo® 3/7 assay (Promega GmbH, Mannheim, Germany) was used for monitoring caspase activity. Briefly, the same volume Caspase-Glo reagent as culture medium was added and incubated 1 h at room temperature. Luminescence was read with a Victor3 Wallac 1420 Multilabel counter (PerkinElmer, Rodgau, Germany). Background absorbance (medium only) was subtracted and the data given as percent of vehicle controls.

tumour cell lines = assay: Cell cycle analysis, statements over the cell line panel; format: cell-based; settings: IC50 concentration, 96 h
Experimental: CycleTEST™ PLUS DNA Reagent Kit (Becton Dickinson GmbH, Heidelberg, Germany) for cell cycle analysis was used, according to the instructions of the manufacturer. Briefly, the cells were harvested with trypsin, washed with PBS, and resuspended in CycleTEST Buffer. The cells were centrifuged and resuspended in solution A. After incubation for 10 min at room temperature, solution B was added and incubated. After adding solution C, the samples were incubated at 4°C protected from light. The samples were stored on ice and protected from light until analysis by FACScan flow cytometer (Becton Dickinson GmbH, Heidelberg, Germany).

BetaD5 = assay: Caspase-Glo 3/7 activity assay; format: cell-based, mouse; settings: IC50 concentration, 24 h, vs vehicle
[1] = test system: murine and human tumour cell lines; assay: MTS cell viability assay, statements over the cell line panel; format: cell-based; settings: 96 h; cell line not stated at b77; read-out: IC50 (MTS) after 96 h of treatment
Experimental: Three human and eleven murine cancer cell lines were used. The human NSCLC cell line A549 (ACC 107) and the human colorectal carcinoma cell line CaCo2 (ACC 169) were obtained from Deutsche Sammlung von Mikroorganismen und Zellkulturen (DSMZ, Braunschweig, Germany). The human hepatocellular carcinoma cell line HepG2 (HB-8065) was obtained from American Type Culture Collection (Manassas, VA, USA). The 11 murine NSCLC cell lines were established as described recently. Cells were grown in monolayer cultures in DMEM containing 10% foetal calf serum, 4 mmol/l L-glutamine and 2% Penicillin/Streptomycin at 37°C in a humidified atmosphere of 95% air and 5% CO2.
Cell culture viability was monitored by CellTiter96® AQueous One Solution Cell Proliferation Assay (Promega GmbH, Mannheim, Germany). The cells were seeded in triplicates in 96-well microtitre plates and treated with the dual kinase inhibitors or vehicle (0.2% DMSO). After 24 h or 96 h of treatment the MTS tetrazolium reagent was added to the cells and incubated for 1 h. Absorbance at 490 nm was assayed with a Victor3 Wallac 1420 Multilabel counter (PerkinElmer, Waltham, MA, USA).

GammaA3 = assay: Caspase-Glo 3/7 activity assay; format: cell-based, mouse; settings: IC50 concentration

For Fc1ccccc1CNc1ncnc2c1cnn2CC(Cl)c1ccc(Br)cc1 (stereo not drawn) [Si162], the Actin protein expression (HepG2) was 77, the Cdc2-p34 protein expression (HepG2) was 12 and the “EGFR Y992-p protein expression” value (HepG2) was 20. The “EGFR Y1045-p protein expression” value (HepG2) was 60, the EGFR protein expression (HepG2) was 535 and the EPS15 protein expression (HepG2) was 56. For the same compound, the FAK protein expression (HepG2) was 96, the STAT5 protein expression (HepG2) was 35 and the c-Abl protein expression (HepG2) was 46. For the same compound, the c-Fos protein expression (HepG2) was 58, the “c-Src Y416-p protein expression” value (HepG2) was 82 and the c-Src protein expression (HepG2) was 86. It also gave a hnRNP-K protein expression (HepG2) of 59, a p38 protein expression (HepG2) of 48 and a p53 protein expression (HepG2) of 73. For the same compound, the “Increase in caspase-3/7 activity” value (GammaD12) was “up to 3 fold” and the “Cell cycle arrest (phase, in words)” value (tumour cell lines) was “arrest in G2/M”.

In the case of Clc1cccc(Nc2nc(SC3CCCC3)nc3c2cnn3CC(Cl)c2ccccc2)c1 (stereo not drawn) [Si135], the Actin protein expression (HepG2) is reported as 68, the Cdc2-p34 protein expression (HepG2) is reported as 9 and the “EGFR Y992-p protein expression” value (HepG2) is reported as 8. The “EGFR Y1045-p protein expression” value (HepG2) was 28, the EGFR protein expression (HepG2) was 261 and the EPS15 protein expression (HepG2) was 48. For the same compound, the FAK protein expression (HepG2) was 130, the STAT5 protein expression (HepG2) was 61 and the c-Abl protein expression (HepG2) was 34. The c-Fos protein expression (HepG2) was 43, the “c-Src Y416-p protein expression” value (HepG2) was 16 and the c-Src protein expression (HepG2) was 78. The hnRNP-K protein expression (HepG2) was 70, the p38 protein expression (HepG2) was 51 and the p53 protein expression (HepG2) was 19. The “Increase in caspase-3/7 activity” value (BetaD5) was 10 fold, the IC50 [1] was 2700 nM and the “Increase in caspase-3/7 activity” value (GammaA3; 24 h, vs vehicle) was 10 fold. The “Increase in caspase-3/7 activity” value (GammaA3; 96 h) was “about 30 % of control”.

— article PMC2994747, “Molecular Characterization of c-Abl/c-Src Kinase Inhibitors Targeted against Murine Tumour Progenitor Cells that Express Stem Cell Markers” (PLoS ONE, 2010)
